# In patent US6143715A, “Hepatitis C inhibitor peptide analogues” (priority 1998, dated 2000):
# Starred links: 1 amine or outer side, 2 acyl side, 3 side chain; linkers in the order of their positions; H or OH if unused. Non-standard residues stand in square brackets, D forms with d. Residues, ends and D or L forms follow the SMILES beside them. ξ: configuration not given here. *: point of attachment. Tetrahydroisoquinolin(2-yl) = c1ccc2c(c1)CCN(*)C2; NH(1S-phenylpropyl) = CC[C@H](N*)c1ccccc1; NH(1S-phenylethyl) = C[C@H](N*)c1ccccc1; X21 = CCCN(N*)C(=O)CCc1nc(-c2ccccn2)no1; X11 = CCCN(N*)C(=O)[C@H](O)c1ccccc1; X20 = O=C(N(CC(F)(F)F)N[*:1])[*:2]; X1 = CCCC(N*)C(=O)C(F)(F)C(F)(F)F; X15 = CCCC(N[*:1])C(=O)C(=O)[*:2]; Hyp = O=C(O)[C@@H]1C[C@@H](O)CN1; NHPiperonyl = c1cc2c(cc1CN*)OCO2; azaNva = CCCN(N[*:1])C(=O)[*:2]; X10 = C=CCN(N[*:1])C(=O)[*:2]; X18 = CCCN(N*)C(=S)NCc1ccccc1; NMe(benzyl) = CN(Cc1ccccc1)*; Suc = O=C(CCC(=O)[*:2])[*:1]; X12 = C[C@H](N*)c1nnn[nH]1; Nva = CCC[C@H](N)C(=O)O; X14 = c1ccc2c(c1)CCN2*; X16 = CCCCN(N*)C(N)=O; NHBn = c1ccc(CN*)cc1; X13 = CCCN(N*)C(N)=O; X19 = CCCN(N*)C(C)=O; ξNva = CCCC(N)C(=O)O; Bn = c1ccc(C*)cc1
# Target: T1, HCV NS3 protease type 1b/NS4A cofactor peptide (Hepatitis C virus genotype 1b, UniProt P26663)
# T1 construct: recombinant HCV NS3 protease (amino acid 1027 to 1206) was cloned; made in house; host or cells: E. coli BL21(DE3)pLysS
# T1 sequence (P26663 1027-1206, other chains not shown): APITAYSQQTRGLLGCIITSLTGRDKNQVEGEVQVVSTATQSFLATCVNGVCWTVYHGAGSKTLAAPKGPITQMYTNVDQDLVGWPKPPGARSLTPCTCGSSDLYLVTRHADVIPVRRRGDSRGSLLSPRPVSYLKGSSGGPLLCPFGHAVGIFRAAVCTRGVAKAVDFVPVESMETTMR
# Test: biochemical
# Design: species or system hepatitis C virus (HCV) genotype 1b
# Conditions: not given
# Excerpt: a) Cloning, expression and purification of the recombinant HCV NS3 protease type lb
# Serum from an HCV-infected patient was obtained through an external collaboration (Bernard Willems MD, Hopital St-Luc, Montreal, Canada and Dr. Donald Murphy, Laboratoire de Sante Publique du Quebec, Ste-Anne de Bellevue, Canada). An engineered full-length cDNA template of the HCV genome was constructed from DNA fragments obtained by reverse transcription-PCR (RT-PCR) of serum RNA and using specific primers selected on the basis of homology between other genotype lb strains. […] A DNA fragment encoding the polyprotein precursor (NS3/NS4A/NS4B/NS5A/NS5B) was generated by PCR and introduced into eucaryotic expression vectors.
# The NS3 protease expression in E. coli BL21(DE3)pLysS was induced by incubation with 1 mM IPTG for 3 h at 22° C. […] The cells were resuspended in lysis buffer (3.0 mL/g) consisting of 25 mM sodium phosphate, pH 7.5, 10% glycerol (v/v), 1 mM EDTA, 0.01% NP-40 and stored at -80° C. Cells were thawed and homogenized following the addition of 5 mM DTT. Magnesium chloride and DNase were then added to the homogenate at final concentrations of 20 mM and 20 μg/mL respectively. After a 25 min incubation at 4° C., the homogenate was sonicated and centrifuged at 15000× g for 30 min at 4° C. The pH of the supernatant was then adjusted to 6.5 using a 1M sodium phosphate solution.
# Briefly, the supernatant from the bacterial extract was loaded on a SP HiTrap column (Pharmacia) previously equilibrated at a flow rate of 2 mL/min in buffer A (50 mM sodium phosphate, pH 6.5, 10% glycerol, 1 mM EDTA, 5 mM DTT, 0.01% NP-40). The column was then washed with buffer A containing 0.15 M NaCl and the protease eluted by applying 10 column volumes of a linear 0.15 to 0.3 M NaCl gradient. NS3 protease-containing fractions were pooled and diluted to a final NaCl concentration of 0.1 M. The enzyme was further purified on a HiTrap Heparin column (Pharmacia) equilibrated in buffer B (25 mM sodium phosphate, pH 7.5, 10% glycerol, 5 mM DTT, 0.01% NP-40). The sample was loaded at a flow rate of 3 mL/min. The column was then washed with buffer B containing 0.15 M NaCl at a flow rate of 1.5 mL/min. Two step washes were performed in the presence of buffer B containing 0.3 or 1M NaCl. […] Finally, the NS3 protease-containing fractions were applied on a Superdex 75 HiLoad 16/60 column (Pharmacia) equilibrated in buffer B containing 0.3 M NaCl.
# The enzyme was stored at -80° C. and was thawed on ice and diluted just prior to use.
# Recombinant HCV NS3 Protease/NS4A Cofactor Peptide Radiometric Assay
# The enzyme was stored at -80° C., thawed on ice and diluted just prior to use in the assay buffer containing the NS4A cofactor peptide.
# The substrate used for the NS3 protease/[…] cofactor peptide radiometric assay, DDIVPC-SMSYTW, is cleaved between the cysteine and the serine residues by the enzyme. The sequence DDIVPC-SMSYTW corresponds to the NS5A/NS5B natural cleavage site in which the cysteine residue in […] has been substituted for a proline. […] (molar ratio enzyme: cofactor 1:100) in the absence or presence of inhibitors. The separation of substrate from products is performed by adding avidin-coated agarose beads to the assay mixture followed by filtration.
# Assay buffer: 50 mM Tris HCl, pH 7.5, 30% (w/v) glycerol, 1 mg/mL BSA, 1 mM TCEP (TCEP added just prior to use from a 1 M stock solution in water)
# Substrate: […], […] final concentration (from a 2 mM stock solution in DMSO stored at -20° C. to avoid oxidation).
row,SMILES,IC50
1,CCCC(NC(=O)[C@@H]1C[C@@H](OCc2ccccc2)CN1C(=O)[C@@H](NC(=O)[C@@H](NC(=O)[C@@H](CCC(=O)O)NC(=O)[C@H](CC(=O)O)NC(C)=O)[C@@H](C)CC)C(C)C)C(=O)C(=O)NCc1ccccc1 (some centres unmarked) [Compound 103] (Ac-D[dE]IV[Hyp](Bn)[X15]-NHBn),0.023 µM
2,CCCN(NC(=O)[C@@H]1C[C@@H](OCc2ccccc2)CN1C(=O)[C@@H](NC(=O)[C@@H](NC(=O)[C@@H](CCC(=O)O)NC(=O)[C@H](CC(=O)O)NC(C)=O)[C@@H](C)CC)C(C)C)C(=O)CCc1nc(-c2ccccn2)no1 [Compound 232] (Ac-D[dE]IV[Hyp](Bn)-X21),3.2 µM
3,CCCN(NC(=O)[C@@H]1C[C@@H](OCc2ccccc2)CN1C(=O)[C@@H](NC(=O)[C@@H](NC(=O)[C@@H](CCC(=O)O)NC(=O)[C@H](CC(=O)O)NC(C)=O)[C@@H](C)CC)C(C)C)C(=O)N(C)Cc1ccccc1 [Compound 223] (Ac-D[dE]IV[Hyp](Bn)[azaNva]-{NMe(benzyl)}),11 µM
4,CC[C@H](C)[C@H](NC(=O)[C@@H](CCC(=O)O)NC(=O)[C@H](CC(=O)O)NC(C)=O)C(=O)N[C@H](C(=O)N1C[C@H](OCc2ccccc2)C[C@H]1C(=O)NN(CC(F)(F)F)C(=O)N[C@@H](C)c1ccccc1)C(C)C [Compound 228] (Ac-D[dE]IV[Hyp](Bn)[X20]-{NH(1S-phenylethyl)}),0.63 µM
5,CCCN(NC(=O)[C@@H]1C[C@@H](OCc2ccccc2)CN1C(=O)[C@@H](NC(=O)[C@@H](NC(=O)[C@@H](CCC(=O)O)NC(=O)[C@H](CC(=O)O)NC(C)=O)[C@@H](C)CC)C(C)C)C(=O)NCc1ccccc1 [Compound 203] (Ac-D[dE]IV[Hyp](Bn)[azaNva]-NHBn),0.59 µM
6,CCCC(NC(=O)[C@@H]1C[C@@H](OCc2ccccc2)CN1C(=O)[C@@H](NC(=O)[C@@H](NC(C)=O)C1CCCCC1)C(C)C)C(=O)C(=O)NCc1ccncc1 (some centres unmarked) [Compound 116],25 µM
7,CCCN(NC(=O)[C@@H]1C[C@@H](OCc2ccccc2)CN1C(=O)[C@@H](NC(=O)[C@@H](NC(=O)[C@@H](CCC(=O)O)NC(=O)[C@H](CC(=O)O)NC(C)=O)[C@@H](C)CC)C(C)C)C(=O)NCC(=O)O [Compound 207] (Ac-D[dE]IV[Hyp](Bn)[azaNva]G-OH),3.75 µM
8,CCCN(NC(=O)[C@@H]1CCCN1C(=O)[C@@H](NC(=O)[C@@H](NC(=O)[C@@H](CC(=O)O)NC(=O)CCC(=O)O)[C@@H](C)CC)C(C)C)C(=O)N[C@@H](C)c1ccccc1 [Compound 220] (Suc-[dD]IVP[azaNva]-{NH(1S-phenylethyl)}),6.9 µM
9,CCCC(NC(=O)[C@@H]1C[C@@H](OCc2ccccc2)CN1C(=O)[C@@H](NC(=O)[C@@H](NC(=O)[C@@H](CCC(=O)O)NC(=O)[C@H](CC(=O)O)NC(C)=O)[C@@H](C)CC)C(C)C)C(=O)N1CCc2ccccc2C1 (some centres unmarked) [Compound 111] (Ac-D[dE]IV[Hyp](Bn)[ξNva]-{Tetrahydroisoquinolin(2-yl)}),20 µM
10,CCCN(NC(=O)[C@@H]1C[C@@H](OCc2ccccc2)CN1C(=O)[C@@H](NC(=O)[C@@H](NC(=O)[C@@H](CCC(=O)O)NC(=O)[C@H](CC(=O)O)NC(C)=O)[C@@H](C)CC)C(C)C)C(=O)N1CCc2ccccc21 [Compound 226] (Ac-D[dE]IV[Hyp](Bn)[azaNva]-X14),6.3 µM
11,CCCCN(NC(=O)[C@@H]1C[C@@H](OCc2ccccc2)CN1C(=O)[C@@H](NC(=O)[C@@H](NC(=O)[C@@H](CCC(=O)O)NC(=O)[C@H](CC(=O)O)NC(C)=O)[C@@H](C)CC)C(C)C)C(N)=O [Compound 211] (Ac-D[dE]IV[Hyp](Bn)-X16),47 µM
12,CCCN(NC(=O)[C@@H]1C[C@@H](OCc2ccccc2)CN1C(=O)[C@@H](NC(=O)[C@@H](NC(=O)[C@@H](CCC(=O)O)NC(=O)[C@H](CC(=O)O)NC(C)=O)[C@@H](C)CC)C(C)C)C(N)=O [Compound 209] (Ac-D[dE]IV[Hyp](Bn)-X13),20.5 µM
13,CCCC(NC(=O)[C@@H]1C[C@@H](OCc2ccccc2)CN1C(=O)[C@@H](NC(=O)[C@@H](NC(=O)[C@@H](CCC(=O)O)NC(=O)[C@H](CC(=O)O)NC(C)=O)[C@@H](C)CC)C(C)C)C(N)=O (some centres unmarked) [Compound 105] (Ac-D[dE]IV[Hyp](Bn)[ξNva]-NH2),54 µM
14,CCCN(NC(=O)[C@@H]1C[C@@H](OCc2ccccc2)CN1C(=O)[C@@H](NC(=O)[C@@H](NC(=O)[C@@H](CCC(=O)O)NC(=O)[C@H](CC(=O)O)NC(C)=O)[C@@H](C)CC)C(C)C)C(=S)NCc1ccccc1 [Compound 224] (Ac-D[dE]IV[Hyp](Bn)-X18),5 µM
15,C=CCN(NC(=O)[C@@H]1C[C@@H](OCc2ccccc2)CN1C(=O)[C@@H](NC(=O)[C@@H](NC(=O)[C@@H](CCC(=O)O)NC(=O)[C@H](CC(=O)O)NC(C)=O)[C@@H](C)CC)C(C)C)C(=O)NCc1ccccc1 [Compound 234] (Ac-D[dE]IV[Hyp](Bn)[X10]-NHBn),3.7 µM
16,CCCN(NC(=O)[C@@H]1C[C@@H](OCc2ccccc2)CN1C(=O)[C@@H](NC(=O)[C@@H](NC(=O)[C@@H](CCC(=O)O)NC(=O)[C@H](CC(=O)O)NC(C)=O)[C@@H](C)CC)C(C)C)C(=O)N[C@@H](CC)c1ccccc1 [Compound 214] (Ac-D[dE]IV[Hyp](Bn)[azaNva]-{NH(1S-phenylpropyl)}),0.44 µM
17,CCCC(NC(=O)[C@@H]1C[C@@H](OCc2ccccc2)CN1C(=O)[C@@H](NC(=O)[C@@H](NC(=O)[C@@H](CCC(=O)O)NC(=O)[C@H](CC(=O)O)NC(C)=O)[C@@H](C)CC)C(C)C)C(=O)C(F)(F)C(F)(F)F (some centres unmarked) [Compound 102] (Ac-D[dE]IV[Hyp](Bn)-X1),0.21 µM
18,CCCN(NC(=O)[C@@H]1C[C@@H](OCc2ccccc2)CN1C(=O)[C@@H](NC(=O)[C@@H](NC(=O)[C@@H](CCC(=O)O)NC(=O)[C@H](CC(=O)O)NC(C)=O)[C@@H](C)CC)C(C)C)C(=O)N[C@@H](C)c1nnn[nH]1 [Compound 233] (Ac-D[dE]IV[Hyp](Bn)[azaNva]-X12),1.5 µM
19,CCCN(NC(=O)[C@@H]1C[C@@H](OCc2ccccc2)CN1C(=O)[C@@H](NC(=O)[C@@H](NC(=O)[C@@H](CCC(=O)O)NC(=O)[C@H](CC(=O)O)NC(C)=O)[C@@H](C)CC)C(C)C)C(=O)[C@H](O)c1ccccc1 [Compound 216] (Ac-D[dE]IV[Hyp](Bn)-X11),9.6 µM
20,CCCN(NC(=O)[C@@H]1C[C@@H](OCc2ccccc2)CN1C(=O)[C@@H](NC(=O)[C@@H](NC(=O)[C@@H](CCC(=O)O)NC(=O)[C@H](CC(=O)O)NC(C)=O)[C@@H](C)CC)C(C)C)C(C)=O [Compound 208] (Ac-D[dE]IV[Hyp](Bn)-X19),14.5 µM
21,CCC[C@H](NC(=O)[C@@H]1C[C@@H](OCc2ccccc2)CN1C(=O)[C@@H](NC(=O)[C@@H](NC(=O)[C@@H](CCC(=O)O)NC(=O)[C@H](CC(=O)O)NC(C)=O)[C@@H](C)CC)C(C)C)C(=O)NCc1ccccc1 [Compound 107] (Ac-D[dE]IV[Hyp](Bn)[Nva]-NHBn),3 µM
22,CCCN(NC(=O)[C@@H]1C[C@@H](OCc2ccccc2)CN1C(=O)[C@@H](NC(=O)[C@@H](NC(=O)[C@@H](CCC(=O)O)NC(=O)[C@H](CC(=O)O)NC(C)=O)[C@@H](C)CC)C(C)C)C(=O)NCc1ccc2c(c1)OCO2 [Compound 231] (Ac-D[dE]IV[Hyp](Bn)[azaNva]-NHPiperonyl),0.5 µM

# Same assay, conditions: IC50: concentration required to obtain 50% inhibition in the NS3 protease/NS4A cofactor peptide radiometric assay, enzyme:cofactor 1:100, 40 min at 23° C.
row,SMILES,IC50
1,"CCCC(NC(=O)[C@@H]1C[C@@H](OCc2ccccc2)CN1C(=O)[C@@H](NC(=O)[C@@H](NC(=O)[C@@H](CCC(=O)O)NC(=O)[C@H](CC(=O)O)NC(C)=O)[C@@H](C)CC)C(C)C)P(=O)(Oc1ccccc1)Oc1ccccc1 (single isomer, unassigned) [Compound 302]",26 µM
